Tested on: ND3 neuronal cell line
Test: Measurement of nerve growth stimulation effect (neurite bearing assay, neurite length assay, number of cells)
Assay type: cell-based
Conditions: relative cell number, DMSO well = 1; for viability at 1 µM / viability at 3 µM / viability at 5 µM / viability at 10 µM / viability at 30 µM / viability at 100 µM: 6 hours; for Number of cells: ND3 cells, 6 h
Protocol: To evaluate the nerve growth stimulation effect, neurite bearing assay (proportion of neurite-bearing cells) and neurite length assay (neurite length) were analyzed with reference to the method of Topalli et al. (Brain Research 1030 (2004), pp. 116-124).
An ND3 neuronal cell line (European Collection of Authenticated Cell Cultures) was seeded in a DMEM medium containing 10% fetal bovine serum (0.6×10^4 cells/1 mL) in a 24-well plate. 24 hours later, the medium of seeded cells was removed, and a solution in which the compound of the present disclosure that was sequentially diluted in dimethyl sulfoxide (DMSO) was adjusted in DIEM containing 0.1% bovine serum albumin so that the DMSO final concentration was 0.1%, was added to cells (evaluation performed in duplicate). After six hours from the addition, the proportion of neurite-bearing cells (the number of cells having a neurite longer than the diameter of the cell body/number of total cells), and the neurite length per cell were analyzed. The number of total cells, proportion of neurite-bearing cells, and neurite length per cell were analyzed using a MetaMorph Neurite Outgrowth Application Module (Molecular Devices Japan K.K.). The number of cells was defined as the relative cell number, taking the number of cells per well containing DMSO as 1. The relative activity of each compound when the maximum activity of 3-(15-methoxypentadecyl)-2,4,4-trimethylcyclohexa-2-en-1-one (compound 24) in each test was defined as 1 is shown (Table 9). For the compounds for which multiple tests were conducted, the average value was shown. Data with a number of cells of 0.5 or more was also used. Accordingly, if the number of cells was less than 0.5, the neurite length per cell and the proportion of neurite-bearing cells were defined as “-”.

Number of cells (1 μM compound)	Number of cells (3 μM compound)	Number of cells (5 μM compound)	Number of cells (10 μM compound)	Number of cells (30 μM compound)	Number of cells (100 μM compound)	Compound	viability at 1 µM	viability at 3 µM	viability at 5 µM	viability at 10 µM	viability at 30 µM	viability at 100 µM
						COCCCCCCCCCCCCCCCC1=C(COC)C(=O)CCC1(C)C [Compound 42, 2-(methoxymethyl)-3-(15-methoxypentadecyl)-4,4-dimethylcyclohex-2-en-1-one]	86%	88%	76%	83%	87%	83%
						CCOC(=O)OCCCCCCCCCCCCCCCC1=C(C)C(=O)CCC1(C)C [Compound 57, ethyl (15-(2,6,6-trimethyl-3-oxocyclohex-1-en-1-yl)pentadecyl) carbonate]	96%	93%	86%	90%	97%	100%
1.13	1.05	0.84	0.91	1.11	1.16	COCCCCCCCCCCCCCCCC1C(C)C(=O)CCC1(C)C (stereo not drawn) [Compound 63, 3-(15-methoxypentadecyl)-2,4,4-trimethylcyclohexan-1-one]						
						COCCCCCCCCCCCCCCCC1=CC(=O)CCC1 [Compound 37, 3-(15-methoxypentadecyl)cyclohex-2-en-1-one]	99%	102%	84%	89%	107%	97%
						CC1(C)CCC(=O)C=C1CCCCCCCCCCCCCCCO [Compound 8, 3-(15-hydroxypentadecyl)-4,4-dimethylcyclohex-2-en-1-one, reference compound]	101%	102%	98%	93%	6%	9%
0.91	0.86	0.84	0.82	0.61	0.09	CCOCCCCCCCCCCCCCCC1=C(C)C(=O)CC1(C)C [Compound 73, 2,4,4-trimethyl-3-(14-ethoxytetradecyl)cyclopent-2-en-1-one]						
1.05	1.09	0.86	0.87	1.05	1.09	COCCCCCCCCCCCCCCCC1=C(C)C(O)CCC1(C)C (stereo not drawn) [Compound 65, 3-(15-methoxypentadecyl)-2,4,4-trimethylcyclohex-2-en-1-ol]						
0.92	0.89	0.80	0.75	0.94	0.93	COCCCCCCCCCCCCCCCC1=C(C)C(=NO)CCC1(C)C [Compound 67, 3-(15-methoxypentadecyl)-2,4,4-trimethylcyclohex-2-en-1-one oxime]						
						COCCCCCCCCCCCCCCCC1=C(C)C(=O)CCC1 [Compound 38, 3-(15-methoxypentadecyl)-2-methylcyclohex-2-en-1-one]	96%	101%	91%	86%	80%	52%
						CC1=C(CCCCCCCCCCCCCCC(N)=O)C(C)(C)CCC1=O [Compound 32, 15-(2,6,6-trimethyl-3-oxocyclohex-1-en-1-yl)pentadecanamide]	92%	93%	81%	81%	54%	9%
0.85	0.92	0.73	0.71	0.95	0.89	COCCCCCCCCCCCCCCCC1=C(C)/C(=N/OC)CCC1(C)C [Compound 68, 3-(15-methoxypentadecyl)-2,4,4-trimethylcyclohex-2-en-1-one O-methyloxime]						
						CCOCCCCCCCCCCCCC1=C(C)C(=O)CCC1(C)C [Compound 12, 3-(12-ethoxydodecyl)-2,4,4-trimethylcyclohex-2-en-1-one]	96%	90%	77%	69%	11%	3%
						CC1=C(CCCCCCCCCCCCCCCOC(F)(F)F)C(C)(C)CCC1=O [Compound 49, 2,4,4-trimethyl-3-(15-(trifluoromethoxy)pentadecyl)-cyclohex-2-en-1-one]	96%	100%	101%	101%	103%	108%
						CC1=C(CCCCCCCCCCCCCCCOC(=O)c2ccccc2)C(C)(C)CCC1=O [Compound 53, 15-(2,6,6-trimethyl-3-oxocyclohex-1-en-1-yl)pentadecyl benzoate]	91%	95%	94%	96%	105%	115%
1.15	1.11	0.80	0.79	0.39	0.04	COCCCCCCCCCCCCCCCC1=C(C)C(N)CCC1(C)C (stereo not drawn) [Compound 66, 3-(15-methoxypentadecyl)-2,4,4-trimethylcyclohex-2-en-1-amine]						
						COCCCCCCCCCCCCCCCC1=C(C)C(=O)CCC12CC2 [Compound 44, 4-(15-methoxypentadecyl)-5-methylspiro[2,5]oct-4-en-6-one]	83%	90%	82%	75%	91%	89%
						COC(C)(C)CCCCCCCCCCCCCCC1=C(C)C(O)CCC1(C)C (stereo not drawn) [Compound 47, 3-(15-methoxy-15-methylhexadecyl)-2,4,4-trimethylcyclohex-2-en-1-ol]	98%	91%	85%	89%	88%	87%
0.84	0.82	0.87	0.77	0.92	0.82	CCCC1=C(CCCCCCCCCCCCCCCOC)C(C)(C)CCC1=O [Compound 61, 3-(15-methoxypentadecyl)-4,4-dimethyl-2-propylcyclohex-2-en-1-one]						
0.87	0.94	0.87	0.79	0.39	0.07	CCCOCCCCCCCCCCCCC1=C(C)C(=O)CC1(C)C [Compound 71, 2,4,4-trimethyl-3-(12-propoxydodecyl)cyclopent-2-en-1-one]						
						COCCCCCCCCCCCCCCCC1=C(C)C(=O)C(C)C1C (stereo not drawn) [Compound 46, 3-(15-methoxypentadecyl)-2,4,5-trimethylcyclopent-2-en-1-one]	94%	99%	83%	78%	102%	98%
